Measurements: PubChem BioAssay (NCI)
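Grown in 96-well plates, cells were treated for 48 hours with each compound at five concentrations. Insufficient inhibition: endpoint recorded as highest concentration tested. GI50: concentration for 50% inhibition of growth. TGI: concentration producing complete growth inhibition.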

What was measured:
Assay in all cases: inhibition of tumour cell growth, NCI panel, 48 h
SK-MEL-28 melanoma = tested on: SK-MEL-28 melanoma
OVCAR-5 ovarian = tested on: OVCAR-5 ovarian
HCT-15 colon = tested on: HCT-15 colon
HCT-116 colon = tested on: HCT-116 colon
SNB-19 CNS = tested on: SNB-19 CNS
CAKI-1 renal = tested on: CAKI-1 renal
OVCAR-4 ovarian = tested on: OVCAR-4 ovarian
UACC-257 melanoma = tested on: UACC-257 melanoma
SNB-75 CNS = tested on: SNB-75 CNS
CCRF-CEM leukemia = tested on: CCRF-CEM leukemia

| Structure (SMILES) | GI50 (SK-MEL-28 melanoma) [µM] | TGI (SK-MEL-28 melanoma) [µM] | GI50 (OVCAR-5 ovarian) [µM] | TGI (OVCAR-5 ovarian) [µM] | GI50 (HCT-15 colon) [µM] | TGI (HCT-15 colon) [µM] | GI50 (HCT-116 colon) [µM] | TGI (HCT-116 colon) [µM] | GI50 (SNB-19 CNS) [µM] | TGI (SNB-19 CNS) [µM] | GI50 (CAKI-1 renal) [µM] | TGI (CAKI-1 renal) [µM] | GI50 (OVCAR-4 ovarian) [µM] | TGI (OVCAR-4 ovarian) [µM] | GI50 (UACC-257 melanoma) [µM] | TGI (UACC-257 melanoma) [µM] | GI50 (SNB-75 CNS) [µM] | TGI (SNB-75 CNS) [µM] | GI50 (CCRF-CEM leukemia) [µM] | TGI (CCRF-CEM leukemia) [µM] |
| --- | --- | --- | --- | --- | --- | --- | --- | --- | --- | --- | --- | --- | --- | --- | --- | --- | --- | --- | --- | --- |
| COc1ccc(C(=O)c2no[n+]([O-])c2C(=O)c2ccc(OC)cc2)cc1 | 9.03 | 22.1 | 10.6 | 25.7 | 3.98 | 14.9 | 1.69 | 3.05 | 42.2 | > 100 | 1.9 | 4 | 2.36 | 6.26 | 3.46 | 10.4 | 3.03 | 9.26 |  |  |
| O=C1/C(=C/c2ccc([N+](=O)[O-])s2)Oc2ccc(Br)cc21 | 0.302 | 0.951 | 1.07 | 2.47 | 0.208 | 0.583 | 0.202 | 0.41 | 0.42 | 2.13 | 1.16 | 9.42 | 0.352 | 1.43 | 0.572 | 3.96 | 0.342 | 4.17 | 0.31 | 0.961 |
| CC(C)CC1CC2C(=O)N(c3ccccc3)C(=O)C2c2[nH]c3ccccc3c21 (centres undefined) |  | > 55.7 |  | > 100 |  | > 31.6 |  | 34 |  | > 100 |  | 72.7 |  | > 38.5 |  | > 100 |  | 30.6 |  | > 56.6 |
| Nc1ncnc2c1ncn2C1OC(F)(COS(N)(=O)=O)C(O)C1O (centres undefined) | > 100 | > 100 | > 100 | > 100 | > 100 | > 100 | > 100 | > 100 | > 100 | > 100 | > 100 | > 100 | > 100 | > 100 | > 100 | > 100 | > 100 | > 100 | > 100 | > 100 |
| CC(=O)CC(=O)Nc1ccc(OS(N)(=O)=O)cc1 |  | > 100 |  | > 100 |  | > 100 |  | > 100 |  | > 100 |  | > 100 |  | > 100 |  | > 100 |  | > 100 |  | > 100 |
| CC[C@@]1(O)C(=O)OCc2c1cc1n(c2=O)Cc2cc3c(N)c(OC)ccc3nc2-1 | 0.466 |  | 0.0543 | 0.842 | 0.283 | 3.52 |  |  | < 0.0238 | > 61.9 | 0.0251 | 0.796 | 0.229 | 1.36 | 0.219 | 2.15 | 0.0339 | 0.265 | < 0.01 | 0.0409 |
| NC(=O)c1c(NC(=O)c2ccc(C(F)(F)F)cc2Cl)sc2c1CCC(=O)C2 | 0.531 | 2.04 | 0.468 | 2.33 |  |  | 0.302 | 1.42 | 0.375 | 3.96 | 0.244 | 0.881 |  |  | 0.654 | 3.46 |  |  | 0.146 | > 100 |
| O=C1C[C@@H]2[C@@H](C=CC23CCCC3)N1O |  | > 100 |  | > 100 |  | > 100 |  | > 100 |  | > 100 |  | > 100 |  | > 100 |  | > 100 |  | > 100 |  | > 100 |
| O=C1c2ccccc2-n2c1nc1ccc([N+](=O)[O-])cc1c2=O |  | > 100 |  | > 100 |  | > 100 |  | > 100 |  | > 100 |  | 99.7 |  |  |  | > 100 |  |  |  | > 100 |
| O=C(Nc1cccc2[nH]c(C(F)(F)F)nc12)c1ccc(Br)cc1F | 4.76 | 16.4 | 5.19 | 23.5 | 3.33 | 14.1 | 3.16 | 11.4 | 3.79 | 14.6 | 2.89 | 15.7 |  |  | 2.35 | 6.67 | 2.68 | 18 | 3.23 | 20.1 |
| O=C1C2C3C=CC(C2C(=O)N1CN1CCOCC1)C1C2C(=O)N(CN4CCOCC4)C(=O)C2C31 (centres undefined) |  | > 66 |  | > 92.7 |  | > 60.1 |  | > 62.8 |  | > 78.9 |  | > 100 |  | > 60.4 |  | > 71.5 |  | > 73.2 |  | 57.9 |
| C[C@H]1CCC/C=C/[C@@H]2C[C@H](O)C[C@H]2[C@H](O)C(O)C(O)C(=O)O1 (some centres undefined) | 1.25 | > 100 | 6.24 | > 100 |  |  | 3.38 | 19 | 3.35 | > 100 | 3.78 | 46 |  |  | 1.1 | > 100 | 0.578 |  | 2.73 | > 25.9 |
| COc1ccc(C2=NC(CO)[C@H](c3ccccc3)O2)cc1OC (some centres undefined) |  |  |  | > 100 |  | > 100 |  | > 100 |  | > 100 |  | > 100 |  | > 100 |  | > 100 |  | > 100 |  | > 100 |
| NC(=O)c1c(-c2ccccc2)c(-c2ccccc2)cc2c(=O)c3ccccc3[nH]c12 |  | 37.6 |  | > 100 |  | > 100 |  | 35.9 |  | 52.4 |  |  |  | 30.4 |  | > 100 |  | 41.7 |  | > 100 |
| CCOC(=O)CCC(NC(=O)c1ccc(Oc2nc3cc(N)cc(N)c3nc2-c2ccccc2)cc1)C(=O)OCC (centres undefined) | 14.3 | 30.5 | 96.8 | > 100 | 34.3 | > 100 | 15.1 | 28.7 | 31.6 | > 100 | 49.5 | > 100 | 35.6 | > 100 | 26.7 | 55.1 |  |  | 12.4 | > 100 |
| CC[P+](C)(C)CC |  | > 100 |  | > 100 |  | > 100 |  | > 100 |  | > 100 |  |  |  | > 100 |  | > 100 |  | > 100 |  | > 100 |
| COc1cc(Br)c(C=Nc2cccc3ccc(OS(=O)(=O)c4ccc([N+](=O)[O-])cc4)cc23)cc1OC |  | > 100 |  | > 100 |  | > 100 |  | > 100 |  | > 100 |  | > 100 |  | > 100 |  | > 100 |  |  |  | > 100 |
